{"source": "patent US11712443B2", "about": "“17α-monoesters and 17α,21-diesters of cortexolone for use in the treatment of tumors” (COSMO TECHNOLOGIES LTD., priority 2014, dated 2023)", "key": {"Caspase 3/7": {"tested_on": "Caspase 3/7", "assay": "Caspase activity assay in MiaPaca2 cells", "format": "cell-based", "conditions": "8, 24, 48 hours, FIG. 11", "procedure": "To better analyze the phenomenon the enzymatic activity of Caspase 8 (initiator caspase for Extrinsic Pathway) and Caspase 9 (initiator caspase for Intrinsic Pathway) and of Caspases 3 and 7 (effector caspases) were measured.\nAfter 8, 24, & 48 hours incubation with test compounds, cells were lysed in buffer containing the caspase 3/7 or 8 or 9 substrate and a stable luciferase in proprietary buffers. The lysates were transferred to white opaque plates before measuring luminescence in a Tecan S afire instrument. Parallel plates treated identically, were used to determine viable cells. All caspase activities were corrected for the number of viable cells."}, "[1]": {"tested_on": "LNCaP prostate cancer xenograft", "assay": "Human prostate cancer xenograft in nude mice, oral treatment", "format": "in vivo", "experimental": "3×10^6 LNCaP cells suspended in matrigel were subcutaneously injected (on the right flank) into 6 week old male athymic nude mice. Tumors were measured as described above. Treatment with CB-03-10 and controls compounds was initiated after the tumor had reached 50 mm3. […] Oral dosing was daily (100 mg/Kg in 200 μL/mouse) for 28 consecutive days. Results were plotted as average change in tumor volume relative to the start of treatment."}, "MCF7": {"tested_on": "MCF7", "assay": "In vitro proliferation / cytotoxic assay on breast cancer cells (cell titer glo)", "conditions": "MCF7 (ER+PR+GR+/-); 72 hours; Table VI prints no unit (same values in Table III in μM)", "experimental": "(§1) For the cytotoxic assay: cells seeded in 96 well flat bottom culture plates in media containing charcoal stripped serum. After 24 hours test compounds were added to the cells. DMSO was used as the vehicle negative control and RU486 as the positive control. After 72 hours incubation cell were harvested, lysed and viability determined using the cell titer glow assay for viability."}, "stimulated PBMC": {"tested_on": "stimulated PBMC", "assay": "IC50 on stimulated PBMC (actively dividing cells)", "conditions": "for Therapeutic Index = IC50 resting PBMC/IC50 cancer cell: PBMC Stim, healthy lymphocyte, Table IV; for Therapeutic Index = IC50 stimulated PBMC/IC50 cancer cell, AVERAGE: average across the 7 cancer cell lines, Table VII", "procedure": "The IC^50 in PBMC were tested in 2 different activation status:\nstimulated—actively dividing cells\nIC50 of the compounds was determined on fresh cells isolated from human blood (PBMC). The compounds toxicity was determined as follow: Therapeutic Index=Safety/Potency=IC50 stimulated PBMC_/IC50 cancer cell"}, "HT29": {"tested_on": "HT29", "assay": "In vitro proliferation, larger cancer cell line panel", "conditions": "Homo sapiens, HT-29, read-out: in vitro proliferation IC50"}, "MDA-MB-231": {"tested_on": "MDA-MB-231", "assay": "In vitro proliferation / cytotoxic assay on breast cancer cells (cell titer glo)", "format": "cell-based", "experimental": "as §1"}, "LNCaP": {"tested_on": "LNCaP", "assay": "ATP-dependent proliferation/viability assay (Cell Titer Glo), 3 days", "conditions": "Homo sapiens, LNCaP, 72 h, LNCaP (AR+); 10 nM DHT; 3 days; Examples 1-2 Experiment 1, sigmoidal dose response fit", "experimental": "(§2) The experiment was performed to test and to define the antitumor activity in vitro of cortexolone 17α-benzoate on LNCaP (AR+) and PC3 (AR^−), representative of Prostatic cancer cell lines with Androgen Receptor (AR) positive or negative expression, respectively. The experimental method consisted of: • 1. […] After 24 hours, 10 nM DHT (dihydrotestosterone) with or without anti-androgen compounds, or DMSO vehicle (negative control) was added to the cultures. • 3.\nas §2, with “define” for “define the”, “17α-valerate-21-propionate (CB-03-10)” for “17α-benzoate”, “AR” for “Androgen Receptor (AR)”"}, "[2]": {"tested_on": "MiaPaca-2 pancreatic tumor xenograft", "assay": "Human pancreatic tumor xenograft in nude mice, subcutaneous treatment", "format": "in vivo", "conditions": "for average tumor size increase: Cyproterone Acetate treatment groups (7.4 mg/kg and 37 mg/kg) SC daily 28 days", "experimental": "The test was carried out comparing the anti-tumor activity of cortexolone 17α-benzoate at two different dosages (8.0 mg/kg, corresponding approximately at 230 μM, and 40 mg/kg, corresponding approximately at 1150 μM), versus the vehicle (i.e. 0.4% (v/v) tween 80 and 0.5% (w/v) carboxymethylcellulose in normal saline) and versus the comparator Cyproterone Acetate at two different dosages (7.4 mg/kg and 37 mg/kg).\n1×10^6 MiaPaca-2 cells suspended in matrigel were subcutaneously injected into 6 week old athymic nude mice.\nThe treatment with the tested compounds, with the vehicle and with the comparative compound, was initiated after the tumor volume has reached 50 mm3 after transplantation. All compounds were injected 100 μL/mouse subcutaneously of low dose solution (approximately 230 μM) or 100 μL/mouse of high dose solution (approximately 1150 μM) of cortexolone 17α-benzoate, vehicle and cyproterone acetate, respectively. Compounds and controls were administered subcutaneously daily for 28 days.\nTumors were measured every 4 days with a digital caliper.\nThe results are plotted in FIG. 1 as average change in tumor volume relative to the start of treatment. Tumor volume was calculated according to the formula 0.5236(r1)^2(r2) where r1<r2.\nThe test was carried out comparing the anti-tumor activity of cortexolone 17α-valerate-21-propionate (CB-03-10) at two different dosages (approximately 8.6 mg/kg and 43 mg/kg) versus the vehicle (i.e. 0.4% (v/v) tween 80 and 0.5% (w/v) carboxymethylcellulose in normal saline) and versus the comparator Cyproterone Acetate at two different dosages (7.4 mg/kg and 37 mg/kg).\nThe treatment with the tested compound, with the vehicle and with the comparative compound was initiated after the tumor has reached a volume of 50 mm3 after implantation, injecting subcutaneously 100 μL/mouse of low dose solution (approximately 230 μM) or 100 μL/mouse of high dose solution (approximately 1150 μM) of cortexolone 17α-valerate-21-propionate (CB-03-10), vehicle and cyproterone acetate, respectively. Compounds and controls were administered subcutaneously daily for 28 days.\nThe results are plotted in FIG. 2 as average change in tumor volume relative to the start of treatment. Tumor volume was calculated according to the formula 0.5236(r1)^2(r2) where r1<r2.\nCPA a well-known anti-androgen was used as control. Briefly 1×10^6 MiaPaca2 cells suspended in matrigel were subcutaneously (SC) injected into 6 week old male athymic nude mice. Tumors were measured every 4 days with a digital caliper. Tumor volume was calculated according to the formula: 0.5236(r1)2(r2) where r1<r2. Treatment with CB-03-10 and controls compounds was initiated after the tumor had reached 50 mm3. Compounds diluted in DMSO/2-hydroxypropyl b-cyclodextrin (vehicle) were injected subcutaneously (SC) daily (100 μL/mouse) at the concentration of 40 mg/Kg daily for 28 consecutive days."}, "Panc1": {"tested_on": "Panc1", "assay": "ATP-dependent proliferation/viability assay (Cell Titer Glo), 3 days", "conditions": "IC50 stimulated PBMC / IC50 Panc1; Experiment 1; 0 = higher toxicity in PBMC than in the cancer cell lines"}}}
{"smiles": "Nc1ccn([C@@H]2O[C@H](CO)[C@@H](O)C2(F)F)c(=O)n1", "note": "[Gemcitabine, reference compound]", "values": [{"measurement": "Caspase 3/7 induction / caspase activation profile", "setting": "Caspase 3/7", "value": "not seen until the 48 hours mark"}]}
{"smiles": "CNC(=O)c1ccc(N2C(=S)N(c3ccc(C#N)c(C(F)(F)F)c3)C(=O)C2(C)C)cc1F", "note": "[Enzalutamide, reference compound]", "values": [{"measurement": "prostate tumor size increase after treatment was stopped", "setting": "[1]; oral 100 mg/Kg daily 28 days, after stop", "value": 8, "unit": "fold"}, {"measurement": "statistical significance of tumor growth versus vehicle", "setting": "[1]; oral gavage, FIG. 16", "value": "statistically significant only on days 14 and 25"}]}
{"smiles": "CC#C[C@]1(O)CC[C@H]2[C@@H]3CCC4=CC(=O)CCC4=C3[C@@H](c3ccc(N(C)C)cc3)C[C@@]21C", "note": "[RU486, Mifepristone, reference compound]", "values": [{"measurement": "IC50", "setting": "MCF7", "value": "Not active"}]}
{"smiles": "CCCC(=O)OC1(C(=O)CO)CCC2C3CCC4=CC(=O)CC[C@]4(C)C3=CC[C@@]21C", "note": "(single isomer, unassigned) [CB-03-04]", "values": [{"measurement": "Therapeutic Index = IC50 resting PBMC/IC50 cancer cell", "setting": "stimulated PBMC", "value": 1}, {"measurement": "Therapeutic Index = IC50 stimulated PBMC/IC50 cancer cell, AVERAGE", "setting": "stimulated PBMC", "value": 4}]}
{"smiles": "CCCC(=O)OCC(=O)[C@@]1(OC(=O)CCC)CCC2C3CCC4=CC(=O)CC[C@]4(C)C3CC[C@@]21C", "note": "(some centres unmarked) [CB-03-03]", "values": [{"measurement": "Therapeutic Index = IC50 resting PBMC/IC50 cancer cell", "setting": "stimulated PBMC", "value": 1}, {"measurement": "Therapeutic Index = IC50 stimulated PBMC/IC50 cancer cell, AVERAGE", "setting": "stimulated PBMC", "value": 4}]}
{"smiles": "CCCCC(=O)O[C@]1(C(=O)CO)CC[C@H]2[C@@H]3CCC4=CC(=O)CC[C@]4(C)[C@H]3CC[C@@]21C", "note": "[CB-03-05, cortexolone 17α-valerate]", "values": [{"measurement": "IC50", "setting": "HT29", "value": 530, "unit": "µM"}, {"measurement": "Therapeutic Index = IC50 resting PBMC/IC50 cancer cell", "setting": "stimulated PBMC", "value": 1}, {"measurement": "Therapeutic Index = IC50 stimulated PBMC/IC50 cancer cell, AVERAGE", "setting": "stimulated PBMC", "value": 3}, {"measurement": "IC50", "setting": "MDA-MB-231; MDA-MB-231 (ER-PR-GR++), TNBC, 72 hours, Table VI prints no unit (same values in Table III in μM)", "value": "Not active"}, {"measurement": "in vitro proliferation IC50", "setting": "MDA-MB-231; MDA-MB-231, Table III", "value": "not active"}, {"measurement": "Caspase 3/7 induction / caspase activation profile", "setting": "Caspase 3/7", "value": "does not show a good profile for caspase activation"}]}
{"smiles": "CC(=O)O[C@]1(C(C)=O)CC[C@H]2[C@@H]3C=C(Cl)C4=CC(=O)[C@@H]5C[C@@H]5[C@]4(C)[C@H]3CC[C@@]21C", "note": "[Cyproterone Acetate, Cyproterone acetate, reference compound]", "values": [{"measurement": "IC50", "setting": "LNCaP", "value": 29, "unit": "µM"}, {"measurement": "Therapeutic Index = IC50 resting PBMC/IC50 cancer cell", "setting": "stimulated PBMC", "value": 1}, {"measurement": "Therapeutic Index = IC50 stimulated PBMC/IC50 cancer cell, AVERAGE", "setting": "stimulated PBMC", "value": 1}, {"measurement": "average tumor size increase", "setting": "[2]; Example 5", "value": 12, "unit": "fold"}, {"measurement": "average tumor size increase", "setting": "[2]; Example 6", "value": "≥ 12", "unit": "fold"}, {"measurement": "Median survival", "setting": "[2]; Example 22, 40 mg/Kg SC daily 28 days, vehicle 60 days", "value": 40, "unit": "days"}, {"measurement": "TI on Stimulated PBMC", "setting": "Panc1", "value": 1}]}
{"smiles": "CCC(=O)O[C@]1(C(=O)CO)CC[C@H]2[C@@H]3CCC4=CC(=O)CC[C@]4(C)[C@H]3CC[C@@]21C", "note": "[CB-03-01]", "values": [{"measurement": "Therapeutic Index = IC50 resting PBMC/IC50 cancer cell", "setting": "stimulated PBMC", "value": 1}, {"measurement": "Therapeutic Index = IC50 stimulated PBMC/IC50 cancer cell, AVERAGE", "setting": "stimulated PBMC", "value": 0}]}
